Assays:
[1] = target: T1, Discoidin domain-containing receptor 2 (Homo sapiens, UniProt Q16832); assay: Inhibition of DDR2 (unknown origin) assessed as residual activity incubated for 5 mins in presence of [gamma-33ATP] by scintillation counting based radiometry assay
T1 sequence (Q16832 whole entry): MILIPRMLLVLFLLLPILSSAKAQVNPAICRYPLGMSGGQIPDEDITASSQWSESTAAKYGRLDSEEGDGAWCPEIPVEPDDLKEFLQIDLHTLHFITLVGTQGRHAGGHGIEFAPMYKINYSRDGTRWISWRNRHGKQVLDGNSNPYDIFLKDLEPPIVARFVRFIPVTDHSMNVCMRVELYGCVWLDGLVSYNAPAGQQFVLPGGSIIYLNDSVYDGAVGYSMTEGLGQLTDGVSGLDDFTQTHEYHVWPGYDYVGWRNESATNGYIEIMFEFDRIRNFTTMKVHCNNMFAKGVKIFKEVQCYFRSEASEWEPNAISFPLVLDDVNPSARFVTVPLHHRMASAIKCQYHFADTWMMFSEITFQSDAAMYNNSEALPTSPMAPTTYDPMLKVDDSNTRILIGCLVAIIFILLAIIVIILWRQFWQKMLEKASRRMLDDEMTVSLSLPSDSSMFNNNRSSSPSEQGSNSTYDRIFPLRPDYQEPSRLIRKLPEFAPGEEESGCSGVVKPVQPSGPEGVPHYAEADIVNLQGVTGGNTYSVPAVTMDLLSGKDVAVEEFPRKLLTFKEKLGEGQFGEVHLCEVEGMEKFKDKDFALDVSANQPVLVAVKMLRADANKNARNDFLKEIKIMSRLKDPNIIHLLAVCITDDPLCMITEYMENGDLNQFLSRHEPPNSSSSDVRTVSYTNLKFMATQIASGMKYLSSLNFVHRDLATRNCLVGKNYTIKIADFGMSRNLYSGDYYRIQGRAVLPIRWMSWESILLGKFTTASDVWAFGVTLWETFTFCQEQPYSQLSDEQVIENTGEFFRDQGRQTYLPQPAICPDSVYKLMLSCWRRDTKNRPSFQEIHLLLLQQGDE

[2] = target: T2, Ephrin type-B receptor 2 (Homo sapiens, UniProt P29323); assay: Inhibition of EPHB2 (unknown origin) assessed as residual activity incubated for 5 mins in presence of [gamma-33ATP] by scintillation counting based radiometry assay
T2 sequence (P29323 whole entry): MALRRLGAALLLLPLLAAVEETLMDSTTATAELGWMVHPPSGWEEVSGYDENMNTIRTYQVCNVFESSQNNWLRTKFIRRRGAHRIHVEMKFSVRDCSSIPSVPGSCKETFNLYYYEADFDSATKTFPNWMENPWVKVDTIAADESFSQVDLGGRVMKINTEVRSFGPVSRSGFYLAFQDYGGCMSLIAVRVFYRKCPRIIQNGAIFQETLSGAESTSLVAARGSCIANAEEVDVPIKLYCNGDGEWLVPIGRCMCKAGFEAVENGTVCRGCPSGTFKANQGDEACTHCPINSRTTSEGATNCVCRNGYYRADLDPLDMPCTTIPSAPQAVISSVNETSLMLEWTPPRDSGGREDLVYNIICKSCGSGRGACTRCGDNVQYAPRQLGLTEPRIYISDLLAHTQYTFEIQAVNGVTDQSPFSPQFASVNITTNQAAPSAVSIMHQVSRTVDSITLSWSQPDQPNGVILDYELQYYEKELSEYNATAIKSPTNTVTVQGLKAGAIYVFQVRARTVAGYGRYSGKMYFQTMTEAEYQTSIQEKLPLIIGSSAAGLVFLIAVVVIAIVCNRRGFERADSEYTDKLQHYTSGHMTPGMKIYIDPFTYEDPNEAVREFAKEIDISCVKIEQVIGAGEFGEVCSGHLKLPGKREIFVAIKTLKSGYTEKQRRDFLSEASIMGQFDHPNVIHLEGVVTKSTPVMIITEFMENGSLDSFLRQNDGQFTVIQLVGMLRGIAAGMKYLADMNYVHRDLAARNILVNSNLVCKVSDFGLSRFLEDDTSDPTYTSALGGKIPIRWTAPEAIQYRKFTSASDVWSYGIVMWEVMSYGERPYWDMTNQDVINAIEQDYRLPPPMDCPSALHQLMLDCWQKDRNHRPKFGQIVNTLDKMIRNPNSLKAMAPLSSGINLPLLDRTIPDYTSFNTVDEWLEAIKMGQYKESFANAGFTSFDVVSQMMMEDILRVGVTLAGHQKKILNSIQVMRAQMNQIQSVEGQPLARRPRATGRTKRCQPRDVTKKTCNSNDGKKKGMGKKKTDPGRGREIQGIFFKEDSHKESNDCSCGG

[3] = target: T3, Ephrin type-B receptor 3 (Homo sapiens, UniProt P54753); assay: Inhibition of EPHB3 (unknown origin) assessed as residual activity incubated for 5 mins in presence of [gamma-33ATP] by scintillation counting based radiometry assay
T3 sequence (P54753 whole entry): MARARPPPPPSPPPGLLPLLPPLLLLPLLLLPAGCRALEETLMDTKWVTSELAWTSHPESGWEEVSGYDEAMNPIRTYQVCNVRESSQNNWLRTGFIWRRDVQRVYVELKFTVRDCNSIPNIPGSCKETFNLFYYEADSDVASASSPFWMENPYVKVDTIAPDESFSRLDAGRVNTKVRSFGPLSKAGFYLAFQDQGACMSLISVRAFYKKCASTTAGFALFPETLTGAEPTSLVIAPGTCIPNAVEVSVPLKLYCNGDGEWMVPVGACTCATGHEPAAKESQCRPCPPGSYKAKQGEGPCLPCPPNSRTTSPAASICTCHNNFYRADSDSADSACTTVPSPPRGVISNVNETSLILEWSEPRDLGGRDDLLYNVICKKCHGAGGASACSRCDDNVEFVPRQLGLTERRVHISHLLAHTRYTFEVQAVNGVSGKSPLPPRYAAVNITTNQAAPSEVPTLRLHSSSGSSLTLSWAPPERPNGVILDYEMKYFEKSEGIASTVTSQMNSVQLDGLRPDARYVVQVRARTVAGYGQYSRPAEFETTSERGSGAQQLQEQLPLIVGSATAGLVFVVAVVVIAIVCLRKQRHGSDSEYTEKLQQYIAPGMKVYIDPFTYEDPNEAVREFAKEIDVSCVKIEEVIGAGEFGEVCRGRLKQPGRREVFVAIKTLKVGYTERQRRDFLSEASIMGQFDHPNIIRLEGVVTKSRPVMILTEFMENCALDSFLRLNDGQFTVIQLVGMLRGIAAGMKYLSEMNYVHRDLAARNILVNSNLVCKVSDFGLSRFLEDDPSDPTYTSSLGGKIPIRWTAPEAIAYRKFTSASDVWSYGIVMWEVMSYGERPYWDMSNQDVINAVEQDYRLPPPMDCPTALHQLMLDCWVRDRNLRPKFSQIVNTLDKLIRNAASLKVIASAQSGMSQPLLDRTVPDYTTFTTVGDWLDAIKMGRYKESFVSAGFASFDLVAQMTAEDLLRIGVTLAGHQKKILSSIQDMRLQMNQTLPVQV

[4] = target: Ephrin type-A receptor 4 (Homo sapiens) (UniProt P54764); assay: Inhibition of EPHA4 (unknown origin) assessed as residual activity incubated for 5 mins in presence of [gamma-33ATP] by scintillation counting based radiometry assay
Ephrin type-A receptor 4 (Homo sapiens), sequence (P54764 whole entry, looked up): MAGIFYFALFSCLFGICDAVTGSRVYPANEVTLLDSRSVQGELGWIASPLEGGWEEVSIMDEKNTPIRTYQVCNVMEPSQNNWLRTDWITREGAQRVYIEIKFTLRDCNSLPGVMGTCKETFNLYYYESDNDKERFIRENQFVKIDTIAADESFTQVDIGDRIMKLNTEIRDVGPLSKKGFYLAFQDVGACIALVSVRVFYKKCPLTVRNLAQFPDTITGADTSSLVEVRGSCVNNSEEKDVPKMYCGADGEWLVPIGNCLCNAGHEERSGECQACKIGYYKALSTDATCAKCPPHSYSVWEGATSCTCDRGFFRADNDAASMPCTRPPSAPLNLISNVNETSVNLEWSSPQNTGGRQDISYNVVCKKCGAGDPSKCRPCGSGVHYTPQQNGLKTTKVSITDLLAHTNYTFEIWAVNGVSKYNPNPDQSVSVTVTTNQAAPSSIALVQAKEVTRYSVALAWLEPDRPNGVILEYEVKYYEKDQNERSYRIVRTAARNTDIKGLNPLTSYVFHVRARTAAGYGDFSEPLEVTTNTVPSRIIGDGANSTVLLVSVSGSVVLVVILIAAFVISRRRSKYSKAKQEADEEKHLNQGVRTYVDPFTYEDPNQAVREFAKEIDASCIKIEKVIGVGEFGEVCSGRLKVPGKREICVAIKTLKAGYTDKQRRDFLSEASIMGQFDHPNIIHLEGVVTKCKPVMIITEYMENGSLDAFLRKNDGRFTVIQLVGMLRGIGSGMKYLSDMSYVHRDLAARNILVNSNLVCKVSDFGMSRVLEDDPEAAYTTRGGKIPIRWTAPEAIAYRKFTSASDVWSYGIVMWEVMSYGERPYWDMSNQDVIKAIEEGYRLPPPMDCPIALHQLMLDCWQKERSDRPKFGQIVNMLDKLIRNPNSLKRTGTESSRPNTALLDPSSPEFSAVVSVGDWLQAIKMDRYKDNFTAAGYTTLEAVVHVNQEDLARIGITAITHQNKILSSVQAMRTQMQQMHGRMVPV

SMILES: Cc1ccc(C(=O)Nc2ccc(CN3Cc4cn[nH]c4C3)c(Cl)c2)cc1C#Cc1cnc2cccnn12
- IC50 [1]: 286 nM
- IC50 [2]: 70.8 nM
- IC50 [3]: 19.5 nM
- IC50 [4]: 84.6 nM
